From ChEMBL document CHEMBL4428049, “Design and synthesis of aminothiazole modulators of the gamma-secretase enzyme” (Bioorg Med Chem Lett, 2016)
Values after ≈ are worked out from the molar mass of the structure shown.

How the values were obtained:
[1] = Kinetic solubility in PBS buffer at pH 7.4 by UV/vis absorbance analysis; format: physicochemical; details: read-out: Kinetic_solubility
[2] = target: Gamma-secretase; assay: Modulation of gamma-secretase in human SH-SY5Y cells overexpressing wild-type human APP751 assessed as inhibition of Abeta42 level after 24 hrs by ELISA; format: cell-based

solubility kinetic [1] | IC50 [2] | SMILES
2.8 µM (≈ 1.38 µg/mL) | > 1000 nM | Cc1cn(-c2ccc(-c3csc(Nc4c5c(nn4C4CCN(C)CC4)CCCC5)n3)cc2F)cn1
16 µM (≈ 8.35 µg/mL) | 270 nM | Cc1cn(-c2ccc(-c3csc(Nc4c5c(nn4CCCN4CCOCC4)CCCC5)n3)cc2F)cn1
< 1.6 µM | 87 nM | Cc1cn(-c2ccc(-c3csc(Nc4cc(C(C)(C)C)nn4CC(F)(F)F)n3)cc2F)cn1
– | > 1000 nM | Cc1cn(-c2ccc(-c3csc(Nc4c5c(nn4CCN4CCOCC4)CCCC5)n3)cc2F)cn1
< 1.6 µM | 67 nM | CCn1nc(C2(C)CC2)cc1Nc1nc(-c2ccc(-n3cnc(C)c3)c(F)c2)cs1
– | 195 nM | Cc1cn(-c2ccc(-c3csc(Nc4c5c(nn4C(C)C)CCCC5)n3)cc2F)cn1
2.1 µM (≈ 0.917 µg/mL) | 62 nM | CCn1nc2c(c1Nc1nc(-c3ccc(-n4cnc(C)c4)c(F)c3)cs1)CCC2(C)C
< 1.6 µM | 86 nM | CCCn1nc(C(C)(C)C)cc1Nc1nc(-c2ccc(-n3cnc(C)c3)c(F)c2)cs1
– | > 1000 nM | Cc1cn(-c2ccc(-c3csc(Nc4[nH]nc5c4CCCC5)n3)cc2F)cn1
< 1.6 µM | 66 nM | Cc1cn(-c2ccc(-c3csc(Nc4c5c(nn4C(C)C)CCC5)n3)cc2F)cn1
– | 289 nM | Cc1cn(-c2ccc(-c3csc(Nc4c5c(nn4C4CCOC4)CCCC5)n3)cc2F)cn1 (stereo not given)
2 µM (≈ 0.905 µg/mL) | 85 nM | Cc1cn(-c2ccc(-c3csc(Nc4cc(C(C)(C)C)nn4C(C)(C)C)n3)cc2F)cn1
– | 208 nM | Cc1cn(-c2ccc(-c3csc(Nc4c5c(nn4C)CCCC5)n3)cc2F)cn1
< 1.6 µM | 94 nM | Cc1cn(-c2ccc(-c3csc(Nc4c5c(nn4CC(F)(F)F)CCC5)n3)cc2F)cn1
< 1.6 µM | 92 nM | Cc1cn(-c2ccc(-c3csc(Nc4c5c(nn4C4CCC4)CCC5)n3)cc2F)cn1
– | 229 nM | Cc1cn(-c2ccc(-c3csc(Nc4c5c(nn4CCCO)CCCC5)n3)cc2F)cn1
– | 110 nM | Cc1cn(-c2ccc(-c3csc(Nc4c5c(nn4CCF)CCCC5)n3)cc2F)cn1
< 1.6 µM | > 1000 nM | Cc1cn(-c2ccc(-c3csc(Nc4c5c(nn4CCO)CCC5)n3)cc2F)cn1
– | > 1000 nM | CCn1nccc1Nc1nc(-c2ccc(-n3cnc(C)c3)c(F)c2)cs1
– | 766 nM | Cc1cn(-c2ccc(-c3csc(Nc4c5c(nn4C4CCOCC4)CCCC5)n3)cc2F)cn1
– | 121 nM | Cc1cn(-c2ccc(-c3csc(Nc4cc(C(F)(F)F)nn4C(C)(C)C)n3)cc2F)cn1
– | 87 nM | Cc1cn(-c2ccc(-c3csc(Nc4cc(C(C)(C)C)nn4C(C)C)n3)cc2F)cn1
2.3 µM (≈ 1.04 µg/mL) | 272 nM | COCCn1nc2c(c1Nc1nc(-c3ccc(-n4cnc(C)c4)c(F)c3)cs1)CCCC2
